Test results taken from ChEMBL document CHEMBL1201862, “PubChem BioAssay data set” (2004).
Active and inactive are the calls of the source.

Assays:
[1] = viability of uninfected HEp-2 cells – cell-based, HTS, cytotoxicity control for RSV inhibitor project, dose response (AID 2410); format: functional; details: human respiratory syncytial virus
[2] = Luminescence Cell-Based Dose Confirmation HTS to Identify Activators of 5'UTR Stem-Loop Driven Alpha-Synuclein mRNA Translation in H4 Neuroglioblastoma Cells. [Related pubchem assays: 1829 (Project Summary), 1814 (Primary HTS)]; format: functional
[3] = Luminescence Cell-Based Dose Response HTS to Identify Activators of Luciferase Translation or Activity in H4 […] Cells. [Related pubchem assays: 1829 (Project Summary), 1814 (Primary HTS)]; format: functional
H4 = assay: Luminescence Cell-Based Dose Response HTS to Identify Activators of 5'UTR Stem-Loop Driven Prion Protein mRNA Translation in H4 Neuroglioblastoma Cells. [Related pubchem assays: 1829 (Project Summary), 1814 (Primary HTS)]; format: functional; details: Homo sapiens
[4] = Trypanosoma cruzi growth suppression in host cells – NIH3T3 host cells, beta-gal luminescence, confirmation (AID 2044); format: functional, cell-based;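 note: intracellular parasites grown in NIH/3T3 mouse fibroblasts as host cells; luminescent beta-galactosidase reporter signal from transgenic T. cruzi replicating inside host cells; inhibitors lower the luminescence signal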
[5] = NIH3T3 cell viability loss – ATP luminescence, mouse fibroblasts, counter-screen, dose response (AID 2010); format: functional, cell-based;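 note: cells exposed to compound for about 90 hours before reading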
INS1 = assay: INS-1E survival protection against cytokine death – cell-based, luminescence, retest, dose response (AID 449756); format: functional; details: Rattus norvegicus;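 note: cell death triggered by IL-1 beta plus TNF-alpha plus IFN-gamma mixture; protective hits raise ATP signal compared with cytokine alone wells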
[6] = molecular target: T1, Replicative DNA helicase DnaB (Mycobacterium tuberculosis, UniProt P9WMR3); assay: DnaB intein splicing inhibitors, dose response, biochemical, cell-free fluorescence (AID 449749); format: functional
T1 sequence (P9WMR3 whole entry): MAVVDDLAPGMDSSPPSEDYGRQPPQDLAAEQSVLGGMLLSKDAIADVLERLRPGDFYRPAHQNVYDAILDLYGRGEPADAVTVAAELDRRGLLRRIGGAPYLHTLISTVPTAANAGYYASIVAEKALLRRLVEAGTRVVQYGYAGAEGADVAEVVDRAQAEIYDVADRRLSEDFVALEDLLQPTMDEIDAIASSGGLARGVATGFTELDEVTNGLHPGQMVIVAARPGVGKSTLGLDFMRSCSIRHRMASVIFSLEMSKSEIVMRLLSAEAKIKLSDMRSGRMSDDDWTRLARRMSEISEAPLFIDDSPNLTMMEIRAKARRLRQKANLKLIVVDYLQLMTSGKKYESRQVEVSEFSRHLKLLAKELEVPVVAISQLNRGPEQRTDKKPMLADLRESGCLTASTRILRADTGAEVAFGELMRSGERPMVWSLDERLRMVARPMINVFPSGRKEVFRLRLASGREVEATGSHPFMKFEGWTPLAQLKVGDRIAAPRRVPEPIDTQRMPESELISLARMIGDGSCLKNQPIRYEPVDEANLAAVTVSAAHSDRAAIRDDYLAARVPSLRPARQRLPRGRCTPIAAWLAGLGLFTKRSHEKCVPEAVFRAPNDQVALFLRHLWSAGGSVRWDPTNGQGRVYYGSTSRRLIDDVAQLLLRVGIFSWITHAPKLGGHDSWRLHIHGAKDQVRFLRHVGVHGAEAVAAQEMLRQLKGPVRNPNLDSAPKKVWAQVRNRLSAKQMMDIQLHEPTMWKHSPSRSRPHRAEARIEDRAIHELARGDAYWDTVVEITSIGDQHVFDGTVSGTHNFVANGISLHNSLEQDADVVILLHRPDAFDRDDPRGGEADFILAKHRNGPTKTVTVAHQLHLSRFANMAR

Protein RecA = molecular target: T2, Protein RecA (Mycobacterium tuberculosis, UniProt P9WHJ3); assay: Fluorescence Cell-Free Homogeneous Dose Retest to Identify Inhibitors of RecA-Intein Splicing Activity. [Related pubchem assays (depositor defined):AID2097, AID2223, AID489010, AID492950]; format: functional
T2 sequence (P9WHJ3 whole entry): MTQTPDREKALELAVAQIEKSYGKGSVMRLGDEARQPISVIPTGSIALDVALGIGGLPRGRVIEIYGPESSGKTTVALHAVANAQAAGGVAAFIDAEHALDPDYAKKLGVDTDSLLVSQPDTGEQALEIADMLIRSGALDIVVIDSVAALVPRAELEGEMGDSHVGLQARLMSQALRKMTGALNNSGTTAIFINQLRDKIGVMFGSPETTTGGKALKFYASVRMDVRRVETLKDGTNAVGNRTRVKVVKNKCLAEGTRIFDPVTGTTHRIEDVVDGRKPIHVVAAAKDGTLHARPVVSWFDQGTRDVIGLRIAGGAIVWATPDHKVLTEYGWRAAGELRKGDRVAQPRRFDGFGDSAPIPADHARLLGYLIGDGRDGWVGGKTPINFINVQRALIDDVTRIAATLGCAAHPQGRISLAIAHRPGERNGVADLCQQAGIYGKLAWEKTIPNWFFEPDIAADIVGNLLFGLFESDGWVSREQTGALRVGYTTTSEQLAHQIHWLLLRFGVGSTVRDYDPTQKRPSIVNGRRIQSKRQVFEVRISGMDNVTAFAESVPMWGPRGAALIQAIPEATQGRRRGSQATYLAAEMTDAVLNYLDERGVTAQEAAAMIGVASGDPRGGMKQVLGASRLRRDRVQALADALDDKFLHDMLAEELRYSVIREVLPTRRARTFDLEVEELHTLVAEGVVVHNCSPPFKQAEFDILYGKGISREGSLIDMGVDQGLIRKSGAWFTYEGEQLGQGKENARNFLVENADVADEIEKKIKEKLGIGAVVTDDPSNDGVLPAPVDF

Cytochrome P450 2C19 = Cytochrome P450 2C19 (Homo sapiens, UniProt P33261); assay: Cytochrome panel assay with activity outcomes. Panel member name: p450-cyp2c19 Compounds with AC50 equal or less than 10 uM are considered active; format: functional; details: read-out: AC50
Cytochrome P450 1A2 = molecular target: T3, Cytochrome P450 1A2 (Homo sapiens, UniProt P05177);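 note: PubChem cytochrome P450 panel assay, CYP1A2 panel member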
T3 sequence (P05177 whole entry): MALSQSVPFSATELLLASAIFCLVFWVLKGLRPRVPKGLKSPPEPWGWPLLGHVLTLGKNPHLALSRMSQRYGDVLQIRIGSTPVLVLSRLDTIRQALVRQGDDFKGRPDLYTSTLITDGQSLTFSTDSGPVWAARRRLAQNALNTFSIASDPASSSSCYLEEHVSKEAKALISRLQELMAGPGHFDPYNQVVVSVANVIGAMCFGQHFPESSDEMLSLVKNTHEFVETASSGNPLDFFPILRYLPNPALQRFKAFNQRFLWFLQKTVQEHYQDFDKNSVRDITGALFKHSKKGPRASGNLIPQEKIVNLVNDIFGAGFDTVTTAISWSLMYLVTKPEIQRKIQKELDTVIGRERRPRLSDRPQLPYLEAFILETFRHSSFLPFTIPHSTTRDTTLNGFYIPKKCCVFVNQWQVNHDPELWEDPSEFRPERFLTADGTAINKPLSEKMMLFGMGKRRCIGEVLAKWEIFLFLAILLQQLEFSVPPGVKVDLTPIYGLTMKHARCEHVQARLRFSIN

Cytochrome P450 3A4 = Cytochrome P450 3A4 (Homo sapiens, UniProt P08684);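 note: CYP3A4 tested as one member of a cytochrome P450 panel screen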
Cytochrome P450 3A4, sequence (P08684 whole entry): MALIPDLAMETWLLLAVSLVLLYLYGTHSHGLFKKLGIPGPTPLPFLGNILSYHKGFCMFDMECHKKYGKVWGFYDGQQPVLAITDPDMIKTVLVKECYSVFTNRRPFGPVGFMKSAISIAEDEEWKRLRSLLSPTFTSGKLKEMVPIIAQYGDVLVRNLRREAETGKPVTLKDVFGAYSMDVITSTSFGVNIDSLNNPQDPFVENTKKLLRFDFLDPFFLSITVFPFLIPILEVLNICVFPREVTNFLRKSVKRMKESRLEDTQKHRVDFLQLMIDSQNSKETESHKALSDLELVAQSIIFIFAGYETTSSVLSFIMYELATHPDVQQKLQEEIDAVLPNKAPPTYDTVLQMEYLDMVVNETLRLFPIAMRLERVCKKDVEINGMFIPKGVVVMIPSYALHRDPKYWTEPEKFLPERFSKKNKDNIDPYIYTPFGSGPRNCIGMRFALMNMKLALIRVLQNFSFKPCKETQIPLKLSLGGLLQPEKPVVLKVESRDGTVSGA

Cytochrome P450 2C19, sequence (P33261 whole entry): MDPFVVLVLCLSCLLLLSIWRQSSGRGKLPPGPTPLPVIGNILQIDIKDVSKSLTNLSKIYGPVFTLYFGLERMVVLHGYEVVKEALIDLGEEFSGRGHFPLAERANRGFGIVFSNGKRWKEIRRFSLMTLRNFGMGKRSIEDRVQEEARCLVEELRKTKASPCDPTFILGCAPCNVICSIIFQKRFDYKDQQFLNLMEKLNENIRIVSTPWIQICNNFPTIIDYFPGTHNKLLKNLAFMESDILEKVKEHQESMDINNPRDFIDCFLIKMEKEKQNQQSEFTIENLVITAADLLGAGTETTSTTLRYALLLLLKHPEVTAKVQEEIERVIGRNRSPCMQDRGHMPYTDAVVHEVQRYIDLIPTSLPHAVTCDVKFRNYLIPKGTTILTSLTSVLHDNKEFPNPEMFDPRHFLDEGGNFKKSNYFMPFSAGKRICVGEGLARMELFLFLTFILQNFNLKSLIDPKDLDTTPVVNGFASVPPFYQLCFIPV

| Structure (SMILES) | CC50 [1] | EC50 [2] | EC50 [3] | EC50 (H4) | further results |
| --- | --- | --- | --- | --- | --- |
| O=S(=O)(c1cccc(-c2csc(-c3cccnc3)n2)c1)N1CCCCC1 | 28.9 µM (active) |  |  |  |  |
| C=CCn1cccc(C(=O)Nc2ccc(SC)cc2)c1=O |  | 0.229 µM (active) | 0.188 µM (active) | 9.44 µM (active) |  |
| O=C(COC(=O)c1ccccc1C(=O)c1ccccc1)Nc1ccc(SC(F)F)cc1 | 16.4 µM (active) |  |  |  |  |
| Cc1nc(C(=O)Nc2ccccc2)sc1C1(C)CC(c2cccnc2)=NO1 (stereo not given) |  | 10.1 µM (active) | 30.4 µM (active) | 11.9 µM (active) |  |
| Cc1c(C(=O)NNC(=O)Nc2ccc([N+](=O)[O-])cc2)oc2ccccc12 | > 50 µM (active) |  |  |  |  |
| Cc1cc(-n2c(C)cc(C(=O)COC(=O)CNC3=NS(=O)(=O)c4ccccc43)c2C)no1 | 25.8 µM (active) |  |  |  |  |
| Nc1nn(-c2ccccc2)nc1C(=O)OCc1ccccc1 |  | > 120 µM (not active) | 13.7 µM (active) | 25.2 µM (active) |  |
| c1ccc2c(-c3nc(-c4ccncc4)no3)cccc2c1 |  | 0.841 µM (active) | > 120 µM (not active) | 51.4 µM (active) |  |
| Oc1nc(CCl)nc2cc(-c3ccc(Cl)cc3)sc12 | 14.5 µM (active) |  |  |  | EC50 [4]: 1.14 µM (active); EC50 [5]: 6.96 µM (active) |
| CC(C)c1ccc(NC(S)=NN2CCOCC2)cc1 |  | 18.4 µM (active) | 17.4 µM (active) | 22.2 µM (active) |  |
| Cc1ccc(-c2nn3c(C)nnc3s2)cc1N | 22.1 µM (active) |  |  |  |  |
| COc1ccccc1N=C(S)NNC(=O)c1ccc(Cl)cc1Cl |  | 10.9 µM (active) | 31.8 µM (active) | 61.7 µM (active) |  |
| O=[N+]([O-])c1ccc2nc(SCc3ccccc3Cl)sc2c1 | 29 µM (active) |  |  |  |  |
| CCn1cnc2cc(NCc3ccccc3Cl)ccc21 | 25 µM (active) |  |  |  |  |
| N#Cc1ccc(-c2ccc(Cl)cc2)nc1SCC(=O)c1cccc(Cl)c1 |  | > 120 µM (not active) | > 120 µM (not active) | > 120 µM (not active) | AC50 (INS1): 3.9 µM (active) |
| CCC1(c2ccccc2)NC(=O)N(CC(=O)Nc2cc(S(=O)(=O)N3CCCCCC3)ccc2OC)C1=O (stereo not given) | 29.9 µM (active) |  |  |  |  |
| Cc1ccccc1OCc1nc(-c2ccc(NC(=O)c3cccs3)cc2)no1 |  | 23.8 µM (active) | 28.5 µM (active) | 1.46 µM (active) |  |

| Structure (SMILES) | CC50 [1] | EC50 [2] | EC50 [3] | EC50 (H4) | further results |
| --- | --- | --- | --- | --- | --- |
| COc1ccc(CN(C(=O)CSc2nnc(-c3ccccc3C)o2)c2ccc(F)cc2)cc1 | 29.4 µM (active) |  |  |  | AC50 [6]: 1.42 µM (active); EC50 (Protein RecA): 8.86 µM (active) |
| Cn1cc(/C=C2\SC(=O)N(c3ccc(O)cc3)C2=O)c2ccccc21 | 16 µM (active) |  |  |  |  |
| Cc1ccc2c(c1)c1c3n2CCN(C(=O)Cn2c(-c4ccccc4)noc2=O)C3CCC1 (stereo not given) | 38.8 µM (active) |  |  |  |  |
| Cc1ccc(Nc2nc(N)c([N+](=O)[O-])c(NCc3ccco3)n2)cc1 | > 50 µM (active) |  |  |  |  |
| Cn1cc(/C=C(\NC(=O)c2ccccc2Cl)C(=O)NCCN2CCOCC2)c2ccccc21 |  | > 120 µM (not active) | > 120 µM (not active) | > 120 µM (not active) |  |
| Cc1cccc(OCC2=NS(=O)(=O)c3ccccc3N2)c1 |  | > 120 µM (not active) | 9.74 µM (active) | > 120 µM (not active) |  |
| CC(C)(C)c1ccc(OCc2ccc(C(=O)NCc3cccnc3)o2)cc1 |  | 6.24 µM (active) | 5.94 µM (active) | > 120 µM (not active) |  |
| Cc1c(OCC(=O)NCc2cccnc2)ccc2c3c(c(=O)oc12)CCC3 |  | > 120 µM (not active) | > 120 µM (not active) | 15.4 µM (active) |  |
| O=C(NCc1nc2ccccc2[nH]1)C1=C[C@@H](c2csc3ccccc23)C[C@@H](OCc2ccc(CO)cc2)O1 | 39 µM (active) |  |  |  |  |
| COn1c2c(c3c4no[n+]([O-])c4ccc31)CCCC2 | 16.5 µM (active) |  |  |  |  |
| Cc1cc(CNC(=O)c2ccc3nc(Cc4ccccc4F)oc3c2)nn1C |  | 0.3 µM (active) | 58.7 µM (active) | 7.51 µM (active) |  |
| CCOC(=O)c1c(C)[nH]c(/C=N/c2ccc(OC)cc2)c1O |  | 16.5 µM (active) | 46.9 µM (active) | 4.53 µM (active) |  |
| C(=N\C(/N=C/c1ccco1)c1ccco1)/c1ccco1 |  | 28.9 µM (active) | > 120 µM (not active) | > 120 µM (not active) |  |
| CC(C)(C)c1ccc(OCc2ccc(C(=O)N/N=C/c3ccc([N+](=O)[O-])cc3)o2)cc1 | 23.3 µM (active) |  |  |  |  |
| C/C(=N\n1nnnc1Nc1ccccc1)c1ccc(N)cc1 |  | > 120 µM (not active) | > 120 µM (not active) | > 120 µM (not active) | AC50 (Cytochrome P450 2C19): 3.55 µM (inconclusive); AC50 (Cytochrome P450 1A2): 12.6 µM (inconclusive); AC50 (Cytochrome P450 3A4): 22.4 µM (inconclusive) |
| COc1ccc(S(=O)(=O)n2ccc(-c3ccc4c(c3)CCC(C)(C)O4)n2)cc1 |  | > 120 µM (not active) | 17.2 µM (active) | 43.4 µM (active) |  |
